This test addresses T1, human recombinant P2X7 receptors (Homo sapiens, UniProt Q99572).
T1 construct: expressed in transfected cells; host or cells: HEK293
T1 sequence (Q99572 1-595): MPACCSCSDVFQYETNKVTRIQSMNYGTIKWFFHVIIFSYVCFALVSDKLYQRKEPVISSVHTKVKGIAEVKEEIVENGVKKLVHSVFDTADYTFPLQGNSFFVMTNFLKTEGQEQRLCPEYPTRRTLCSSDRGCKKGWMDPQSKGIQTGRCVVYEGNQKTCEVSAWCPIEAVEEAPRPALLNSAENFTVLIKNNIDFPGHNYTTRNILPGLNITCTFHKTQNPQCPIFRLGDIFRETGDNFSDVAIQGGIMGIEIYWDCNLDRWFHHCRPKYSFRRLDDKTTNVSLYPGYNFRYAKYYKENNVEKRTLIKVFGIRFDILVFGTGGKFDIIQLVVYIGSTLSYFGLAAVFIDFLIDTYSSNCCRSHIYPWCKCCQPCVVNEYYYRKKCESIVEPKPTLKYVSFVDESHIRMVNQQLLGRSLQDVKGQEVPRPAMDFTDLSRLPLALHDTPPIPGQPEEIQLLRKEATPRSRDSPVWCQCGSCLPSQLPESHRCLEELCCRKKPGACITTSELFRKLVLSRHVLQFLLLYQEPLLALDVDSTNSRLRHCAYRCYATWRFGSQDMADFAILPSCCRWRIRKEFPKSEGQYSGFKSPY
Kind of test: Ethidium Accumulation Assay. It counts as cell-based. Conditions: HEK293 cells expressing human recombinant P2X7; 1 mM ATP, 100 μM ethidium; 30 min preincubation at room temperature; read-out: Antagonist pIC50 for blocking ATP responses (cellular accumulation of ethidium) (converted). How it is done: Studies were performed using NaCl assay buffer of the following composition (in mM): 140 mM NaCl, HEPES 10, N-methyl-D-glucamine 5, KCl 5.6, D-glucose 10, CaCl2 0.5 (pH 7.4). HEK293 cells, expressing human recombinant P2X7 receptors, were grown in poly-L-lysine pretreated 96 well plates for 18-24 h. (The cloning of the human P2X7 receptor is described in U.S. Pat. No. 6,133,434). The cells were washed twice with 350 μl of assay buffer before addition of 50 μl of antagonist. The cells were then incubated at room temperature (19-21° C.) for 30 min before addition of ATP and ethidium (100 μM final assay concentration). The ATP concentration was chosen to be close to the EC80 for the receptor type and was 1 mM for studies on the human P2X7 receptor. Incubations were continued for 8 or 16 min and were terminated by addition of 25 μl of 1.3M sucrose containing 5 mM of the P2X7 receptor antagonist reactive black 5 (Aldrich). Cellular accumulation of ethidium was determined by measuring fluorescence (excitation wavelength of 530 nm and emission wavelength of 620 nm) from below the plate with a Canberra Packard Fluorocount (Pangbourne, UK). Antagonist pIC50 values for blocking ATP responses were determined using iterative curve fitting techniques.

Bounds are passed on as bounds.

With `CCN1C(=O)c2ccccc2C1C(=O)NCc1ccc(Cl)cc1Cl` (stereo not drawn) [Example 2, N-[(2,4-dichlorophenyl)methyl]-2-ethyl-3-oxo-2,3-dihydro-1H-isoindole-1-carboxamide], the IC50 was not above 631 nM.

With `CN1C(=O)c2ccccc2C1C(=O)NCc1ccc(Cl)cc1Cl` (stereo not drawn) [Example 5, N-[(2,4-dichlorophenyl)methyl]-2-methyl-3-oxo-2,3-dihydro-1H-isoindole-1-carboxamide], the IC50 is not above 126 nM.

Regarding `CN1C(=O)c2ccccc2C1C(=O)NCc1cccc(C(F)(F)F)c1Cl` (stereo not drawn) [Example 7, N-{[2-chloro-3-(trifluoromethyl)phenyl]methyl}-2-methyl-3-oxo-2,3-dihydro-1H-isoindole-1-carboxamide], the IC50 was not above 126 nM.

`CN1C(=O)c2ccccc2C1C(=O)NCc1ccc(F)cc1Cl` (stereo not drawn) [Example 6, N-[(2-chloro-4-fluorophenyl)methyl]-2-methyl-3-oxo-2,3-dihydro-1H-isoindole-1-carboxamide]: the IC50 is not above 631 nM.

On to `CC1=CC(=O)N(C2CC2)C1C(=O)NCc1ccc(Cl)cc1Cl` (stereo not drawn) [Example 1, 1-cyclopropyl-N-[(2,4-dichlorophenyl)methyl]-3-methyl-5-oxo-2,5-dihydro-1H-pyrrole-2-carboxamide], for which the IC50 was not above 631 nM.

In the case of `CCN1C(=O)c2ccccc2C1C(=O)NCc1cccc(C(F)(F)F)c1Cl` (stereo not drawn) [Example 4, N-{[2-chloro-3-(trifluoromethyl)phenyl]methyl}-2-ethyl-3-oxo-2,3-dihydro-1H-isoindole-1-carboxamide], the IC50 is not above 126 nM.

The values are drawn from US7935832B2, “Pyrrole and isoindole carboxamide derivatives as P2X7 modulators” (Glaxo Group Limited, priority 2007, dated 2011).
